In US20040224995A1 (University of North Texas Health Science Center at Fort …, priority 2003, published 2004):

Legend:
HT-22 cells = assay: HT-22 cell viability during BSO exposure; assay type: cell-based, mouse
Method: The in vitro model used for oxidative cell death was based upon glutamate, hydrogen peroxide, and buthionine sulfoximine (“BSO”) administration to HT-22 mouse hippocampal, C6 rat glioma, and RGC-5 retinal ganglion cell lines. The ease that the above cell lines are cultured is well known in the art of cell culture. Additionally, these cell lines are suitable for screening a various number of compounds described in the present invention.
Although not wanting to be bound by theory, the toxicity of glutamate in HT-22 (32) and C6 glioma (33) cell lines is mediated through oxidative stress. HT-22 cells lack ionotropic N-methyl-D-aspartate (“NMDA”) glutamate receptors, and the glutamate-induced cell death appears to occur via a slow onset oxidative stress (32,34,35). Glutamate blocks cystine uptake by inhibiting the glutamate/cystine antiporter in both HT-22 (32) and C6 glioma (33) cell lines. […] In some of the experiments, the viability of cells was determined using 2.5 μM calcein AM assay in phosphate-buffered saline (PBS 1×). After 25 minutes of incubation, live cells were distinguished by the presence of intracellular esterase activity, which cleaves the calcein AM dye, producing a bright green fluorescence, as shown in FIG. 22. Viability was measured in Relative Fluorescent Units (“RFU”), and expressed as percentage of vehicle-treated control values. […]

PPARγ = conditions: Kliewer et al., 1995; cited from earlier work

Cc1c(C)c2c(c(C)c1O)CCC(C)(COc1ccc(CC3SC(=O)NC3=O)cc1)O2 (centres unmarked) [troglitazone]
protection against BSO (HT-22 cells): protected

CCCCC/C=C/C=C1/C(=O)C=C[C@@H]1C/C=C\CCCC(=O)O [15d-PGJ2, 15-deoxy-Δ^12,14-PGJ2]
EC50 (PPARγ): 7 µM
